ChEMBL document CHEMBL1136933 (J Med Chem, 2009)

What was measured:
Type in all cases: functional, cell-based
[1] = biological target: T1, Muscarinic acetylcholine receptor M5 (Homo sapiens) (UniProt P08912); experiment: Activation of human muscarinic M5 receptor expressed in CHO cells coexpressing Gq protein assessed as potentiation of acetylcholine-induced intracellular Ca2+ mobilization at 30 uM relative to acetylcholine
T1 sequence (whole entry): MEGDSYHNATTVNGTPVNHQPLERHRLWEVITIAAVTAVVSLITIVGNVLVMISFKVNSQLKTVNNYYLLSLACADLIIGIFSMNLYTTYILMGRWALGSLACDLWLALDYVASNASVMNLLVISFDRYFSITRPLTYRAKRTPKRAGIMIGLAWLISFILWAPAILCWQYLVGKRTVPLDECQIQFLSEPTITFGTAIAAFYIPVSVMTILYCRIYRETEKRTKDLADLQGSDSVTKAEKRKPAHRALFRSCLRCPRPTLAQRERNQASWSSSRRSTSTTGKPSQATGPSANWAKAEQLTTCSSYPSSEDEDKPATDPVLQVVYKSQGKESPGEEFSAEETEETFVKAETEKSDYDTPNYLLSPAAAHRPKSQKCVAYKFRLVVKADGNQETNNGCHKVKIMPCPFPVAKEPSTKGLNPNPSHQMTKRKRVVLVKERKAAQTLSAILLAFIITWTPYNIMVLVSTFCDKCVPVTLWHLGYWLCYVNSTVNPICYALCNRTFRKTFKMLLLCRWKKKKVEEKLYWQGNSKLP

[2] = biological target: T2, Muscarinic acetylcholine receptor M1 (Rattus norvegicus) (UniProt P08482); experiment: Activation of rat muscarinic M1 receptor expressed in CHO cells co-expressing Gq protein assessed as potentiation of acetylcholine-induced intracellular Ca2+ mobilization at 30 uM relative to acetylcholine
T2 sequence (whole entry): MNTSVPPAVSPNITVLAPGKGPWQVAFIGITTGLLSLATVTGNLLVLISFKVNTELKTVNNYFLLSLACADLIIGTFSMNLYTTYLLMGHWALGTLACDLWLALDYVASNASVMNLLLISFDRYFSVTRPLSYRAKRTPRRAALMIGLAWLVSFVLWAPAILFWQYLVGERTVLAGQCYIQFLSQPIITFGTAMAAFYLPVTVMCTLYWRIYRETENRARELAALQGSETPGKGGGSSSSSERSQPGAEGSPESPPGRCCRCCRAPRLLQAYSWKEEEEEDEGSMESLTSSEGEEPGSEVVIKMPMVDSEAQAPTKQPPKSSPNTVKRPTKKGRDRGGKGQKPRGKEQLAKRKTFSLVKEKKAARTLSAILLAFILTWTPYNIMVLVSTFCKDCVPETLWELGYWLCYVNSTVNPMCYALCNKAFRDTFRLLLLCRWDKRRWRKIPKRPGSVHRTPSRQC

[3] = biological target: T3, Muscarinic acetylcholine receptor M5 (Homo sapiens, UniProt P08912); experiment: Activation of human muscarinic M5 receptor expressed in CHO cells coexpressing Gq protein assessed as potentiation of acetylcholine-induced intracellular Ca2+ mobilization
T3 sequence (P08912 whole entry): T1 sequence (whole entry)

%max [1] [%]	%max [2] [%]	EC50 [3] [µM]	SMILES
31.8	27.3		O=C1C(=O)N(Cc2c(F)cccc2F)c2ccc(Cl)cc21
60.3	47.3		O=C1C(=O)N(Cc2ccc(F)cc2F)c2ccc(F)cc21
24.5	38.9		O=C1C(=O)N(Cc2ccccc2F)c2ccccc21
23.6	38.8		O=C1C(=O)N(Cc2c(F)cccc2F)c2c(Cl)cccc21
16	21.1		O=C1C(=O)N(Cc2ccccc2C(F)(F)F)c2c(Cl)ccc(Cl)c21
25.1	33.1		O=C1C(=O)N(Cc2c(F)cccc2F)c2c(F)cccc21
20.7	12.1		O=C1C(=O)N(Cc2ccc(Br)cc2)c2c(Cl)ccc(Cl)c21
29.6	14.5		COc1cccc(CN2C(=O)C(=O)c3cc(C)ccc32)c1
12.4	9.93		O=C1C(=O)N(Cc2ccc(Br)cc2F)c2c(Cl)ccc(Cl)c21
61.9	25.9		O=C1C(=O)N(Cc2ccc(F)cc2F)c2ccc(OC(F)(F)F)cc21
44.3	29.9		O=C1C(=O)N(Cc2ccc(Br)cc2)c2c(Cl)cccc21
44.9	32.4		O=C1C(=O)N(Cc2ccc(F)cc2F)c2ccc(Cl)cc21
30.4	29.9		O=C1C(=O)N(Cc2ccc(Br)cc2F)c2ccc(Cl)cc21
41.6	32.3		COc1cccc(CN2C(=O)C(=O)c3cc(F)ccc32)c1
40.8	37.7		Cc1ccccc1CN1C(=O)C(=O)c2cc(F)ccc21
64	70.5		O=C1C(=O)N(Cc2ccc(Br)cc2F)c2ccc(F)cc21
57.7	51.8		O=C1C(=O)N(Cc2ccc(OC(F)(F)F)cc2)c2c(F)cccc21
46.2	40.1		O=C1C(=O)N(Cc2ccccc2F)c2ccc(F)cc21
48.4	29.6		O=C1C(=O)N(Cc2ccccc2C(F)(F)F)c2ccc(Cl)cc21
44.4	54.6		COc1ccc(CN2C(=O)C(=O)c3cccc(F)c32)cc1
33.8	32.6		Cc1cccc2c1N(Cc1ccc(F)cc1F)C(=O)C2=O
11.7	18.6		COc1ccc(CN2C(=O)C(=O)c3c(Cl)ccc(Cl)c32)cc1
19.1	17.2		O=C1C(=O)N(Cc2ccc(F)cc2F)c2c(Cl)ccc(Cl)c21
18.9	13.1		O=C1C(=O)N(Cc2ccccc2Cl)c2c(Cl)ccc(Cl)c21
38.7	46.9		COc1cccc(CN2C(=O)C(=O)c3cccc(Cl)c32)c1

%max [1] [%]	%max [2] [%]	EC50 [3] [µM]	SMILES
31.1	27.6		O=C1C(=O)N(Cc2c(F)cccc2F)c2ccc(F)cc21
36.3	43.2		Cc1ccccc1CN1C(=O)C(=O)c2ccccc21
48.5	49.2		O=C1C(=O)N(Cc2ccc(Br)cc2F)c2ccccc21
58.4	59.8		O=C1C(=O)N(Cc2ccc(OC(F)(F)F)cc2)c2ccc(F)cc21
29.8	13.6		O=C1C(=O)N(Cc2c(F)cccc2F)c2ccc(OC(F)(F)F)cc21
36.3	23		O=C1C(=O)N(Cc2ccccc2F)c2ccc(Cl)cc21
24.1	19		Cc1ccc2c(c1)C(=O)C(=O)N2Cc1ccc(Br)cc1
20.3	18.5		O=C1C(=O)N(Cc2ccccc2Cl)c2c(F)cccc21
46.3	39.2		O=C1C(=O)N(Cc2ccc(Br)cc2F)c2c(F)cccc21
23.2	16		O=C1C(=O)N(Cc2ccc(OC(F)(F)F)cc2)c2c(Cl)ccc(Cl)c21
27.9	16.9		COc1cccc(CN2C(=O)C(=O)c3cc(Cl)ccc32)c1
47.6	13.2		O=C1C(=O)N(Cc2ccc(Br)cc2)c2ccc(OC(F)(F)F)cc21
47.3	27.6		Cc1ccccc1CN1C(=O)C(=O)c2cc(Cl)ccc21
21.2	14.1		COc1ccc(CN2C(=O)C(=O)c3cc(C)ccc32)cc1
24.6	24.9		Cc1cccc2c1N(Cc1ccccc1F)C(=O)C2=O
32.6	20.3		COc1ccc(CN2C(=O)C(=O)c3cc(Cl)ccc32)cc1
68.9	64.4		O=C1C(=O)N(Cc2ccc(F)cc2F)c2c(F)cccc21
14	31.1		O=C1C(=O)N(Cc2ccccc2C(F)(F)F)c2c(Cl)cccc21
56.5	22.6		O=C1C(=O)N(Cc2ccccc2C(F)(F)F)c2ccc(OC(F)(F)F)cc21
42	43.4		O=C1C(=O)N(Cc2ccccc2Cl)c2ccccc21
24.3	16.8		Cc1ccc2c(c1)C(=O)C(=O)N2Cc1ccccc1Cl
		3.19	O=C1C(=O)N(Cc2ccc(C(F)(F)F)cc2)c2ccccc21
27.8	22.3		Cc1ccc2c(c1)C(=O)C(=O)N2Cc1ccc(Br)cc1F
28	19.4		COc1cccc(CN2C(=O)C(=O)c3ccccc32)c1
38.3	41.1		COc1ccc(CN2C(=O)C(=O)c3cc(F)ccc32)cc1

%max [1] [%]	%max [2] [%]	EC50 [3] [µM]	SMILES
40.2	37.9		O=C1C(=O)N(Cc2ccccc2C(F)(F)F)c2ccccc21
12.2	16.4		O=C1C(=O)N(Cc2c(F)cccc2F)c2c(Cl)ccc(Cl)c21
35.5	22.9		Cc1ccc2c(c1)C(=O)C(=O)N2Cc1ccc(C(F)(F)F)cc1
30.6	17.8		Cc1ccc2c(c1)C(=O)C(=O)N2Cc1ccccc1C(F)(F)F
51.8	11.3		O=C1C(=O)N(Cc2ccccc2F)c2ccc(OC(F)(F)F)cc21
		4.66	O=C1C(=O)N(Cc2ccc(Br)cc2F)c2c(Cl)cccc21
44.4	21.3		O=C1C(=O)N(Cc2ccccc2Cl)c2ccc(Cl)cc21
32	26.1		O=C1C(=O)N(Cc2ccc(Br)cc2)c2ccc(Cl)cc21
32.6	32.8		Cc1ccccc1CN1C(=O)C(=O)c2cccc(Cl)c21
16.4	13.7		Cc1ccccc1CN1C(=O)C(=O)c2c(Cl)ccc(Cl)c21
42.4	42.7		O=C1C(=O)N(Cc2ccccc2F)c2c(F)cccc21
29.9	20.2		Cc1ccc2c(c1)C(=O)C(=O)N2Cc1ccccc1C
18.9	13.8		Cc1ccc2c(c1)C(=O)C(=O)N2Cc1ccc(OC(F)(F)F)cc1
47.1	31.3		O=C1C(=O)N(Cc2ccc(OC(F)(F)F)cc2)c2ccc(Cl)cc21
67.4	44.1		O=C1C(=O)N(Cc2ccc(C(F)(F)F)cc2)c2ccc(Cl)cc21
61.6	64.6		O=C1C(=O)N(Cc2ccc(F)cc2F)c2c(Cl)cccc21
40.4	44.8		O=C1C(=O)N(Cc2ccc(F)cc2F)c2ccccc21
14.4	17.3		Cc1cccc2c1N(Cc1c(F)cccc1F)C(=O)C2=O
49.5	50.4		O=C1C(=O)N(Cc2ccccc2F)c2c(Cl)cccc21
14.7	12.4		O=C1C(=O)N(Cc2ccccc2F)c2c(Cl)ccc(Cl)c21
52	51.1		COc1cccc(CN2C(=O)C(=O)c3cccc(F)c32)c1
17.4	36.6		O=C1C(=O)N(Cc2c(F)cccc2F)c2ccccc21
27.5	30.2		Cc1ccccc1CN1C(=O)C(=O)c2cccc(F)c21
72.3	43.6		O=C1C(=O)N(Cc2ccc(OC(F)(F)F)cc2)c2c(Cl)cccc21
60.5	54.7		O=C1C(=O)N(Cc2ccc(OC(F)(F)F)cc2)c2ccccc21

SMILES	%max [1] [%]	%max [2] [%]	EC50 [3] [µM]
O=C1C(=O)N(Cc2ccccc2Cl)c2ccc(F)cc21	39.9	41.4	
